Source: patent US20220048915A1 (SHANGHAI PHARMACEUTICALS HOLDING CO., LTD., priority 2018, published 2022)

Tests used:
[1] = target: p38α (Homo sapiens, UniProt Q16539); assay: In vitro inhibition of p38 kinase (LANCE Ultra TR-FRET); format: biochemical; details: read-out: Kinase in vitro IC50(nM) p38α
[2] = target: p38β (Homo sapiens, UniProt Q15759); assay: as above; format: biochemical; details: read-out: Kinase in vitro IC50(nM) p38β
[3] = target: T1, p38γ (Homo sapiens, UniProt P53778); assay: as above; format: biochemical; details: read-out: Kinase in vitro IC50(nM) p38γ
T1 sequence (P53778 1-367): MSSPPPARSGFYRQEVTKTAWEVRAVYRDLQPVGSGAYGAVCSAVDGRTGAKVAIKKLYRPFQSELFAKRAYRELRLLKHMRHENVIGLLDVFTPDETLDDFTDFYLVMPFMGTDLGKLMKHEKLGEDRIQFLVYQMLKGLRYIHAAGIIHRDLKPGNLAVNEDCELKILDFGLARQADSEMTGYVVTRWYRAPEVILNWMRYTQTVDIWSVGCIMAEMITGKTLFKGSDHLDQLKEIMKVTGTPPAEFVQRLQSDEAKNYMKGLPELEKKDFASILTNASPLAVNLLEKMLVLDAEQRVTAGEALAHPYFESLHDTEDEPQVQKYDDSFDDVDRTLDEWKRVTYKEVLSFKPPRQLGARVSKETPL
Description: 10 mM of the storage solution of the test compound was taken and placed in a 96-well compound plate, and using DMSO for the compound at an initial concentration of 100×, which was then used as the first concentration and then carried out a 3-fold gradient dilution with DMSO for a total of 10 concentrations. After that, 1 μL of gradient dilutions were added to 19 μL of 1× reaction buffer to prepare 5× compound for later use. […] To the compound-free control well was added 2 μL of the following liquid: 19 μL of 1× reaction buffer with addition of 1 μL of DMSO. To the Min control well was added 2 μL of 250 mM EDTA.
1× of LANCE® Detection value Buffer was used to prepare a 2×Antibody for use, and the amount was 5 μL per well, at the same time 10 mM EDTA was prepared for later use. After the enzyme reaction was carried out for 30 minutes, 5 μL 10 mM EDTA was added to the 384-well plate and the reaction was carried out at room temperature for 5 minutes. Afterwards, 5 μL LANCE® Ultra Europium-anti-phospho-eIF4E-binding protein 1 (Thr37/46) was added to the 384-well plate and the reaction was carried out at room temperature for one hour.

[4] = system: BV-2 cells; assay: Inhibition of inflammation in LPS-stimulated BV-2 cells (ELISA of inflammatory factors); format: cell-based; details: Mus musculus, 100 ng/mL LPS 4 hours; for Emax: read-out: BV-2 Max Inh. (%); for IC50: read-out: BV-2 Rf IC50
Description: Normal cultured 8th passage BV-2 cells were taken, and inoculated separately in 96-well plates at a certain cell density. The cell culture plates were cultured at 37° C. and 5% CO2 for 24 hours.
After inoculating the plate for 24 hours, the cell culture medium was removed, and then 100 μL of a 4-fold gradient dilution compound starting from 10,000 nM prepared in DMEM+10% FBS, where High control and Low control contained 0.1% DMSO without compound. With 100 μL per well, the cell culture plate was cultured at 37° C. with 5% CO2 for one hour.
The compound-containing cultures were removed. 100 ng/mL of LPS was prepared with DMEM+10% FBS culture medium, and then the compound was diluted in a 4-fold gradient from 10,000 nM with LPS-containing culture medium. In low control, the compound was replaced with 0.1% DMSO. In High control, 0.1% DMSO was prepared with culture medium without LPS. 100 μL per well, and the cell culture plates were cultured at 37° C. with 5% CO2 for 4 hours.
After 4 hours of LPS stimulation, 110 μL of the culture solution was aspirated, and centrifuged at 2000 rpm for 2 minutes. A further 90 μl of supernatant was aspirated and immediately put into −20° C. for freezing.
ELISA kits were used to detect the expression of inflammatory factors such as IL-10, TNFα, etc. The OD450 signal values were measured by microplate reader. The in vitro inhibitory activity of the compounds was calculated according to the following formula: Inhibition rate: Inhibition rate (%)=(signal value of control−signal value of administration)/(high signal value of control−low signal value of control)×100%. And according to the inhibition rate of each concentration, Graphpad Prism 5.0 was used to curve fit the […] signal values at each concentration and calculate the corresponding IC50, which is shown in Table 1.

[5] = Pharmacokinetic properties in mice; format: in vivo, ICR mice; details: for absorption compared with the positive compound VX-745 at the same dose: 10 mg/kg; for Thalf (iv): iv 3 mg/kg; for Cmax / MRT / Tmax: male, ICR, mouse, plasma; for Cmax / MRT / Tmax / AUClast (po): po 10 mg/kg; for BA: po 10 mg/kg vs iv 3 mg/kg; for AUClast (po): 5-1440 minutes
Description: Forty-eight male ICR mice, weighing 18-22 g (provided by Shanghai Xipuerbikai Laboratory Animal Co., Ltd, Certificate No.: 20130016008116). The mice were […] for 12-16 hours before the experiment but water was allowed.
Blood samples were collected from the fundus vein of mice before and at 2, 5, 15, 30, 60, 90, 120, 240, 480, 600, and 1440 minutes of the administration, respectively.
Blood samples were collected from the fundus vein of mice before and at 5, 15, 30, 60, 90, 120, 240, 480 and 1440 minutes of administration, respectively.
2-3 time points were taken for each mouse. The mice were sacrificed at 5, 15, 30, 60 and 1440 minutes after the administration (3 mice per time point), and the brains were taken, rinsed with saline, dried on filter paper and weighed.
Blood samples were centrifuged at 8000 rpm for 5 minutes, and supernatant plasma was taken. To 50 μL of plasma samples was added 300 μL of acetonitrile containing internal standard (propranolol, 25 ng/mL) to precipitate the protein. After vortexing for 10 minutes and centrifuging at 6000 g and 4° C. for 10 minutes, the supernatant was taken and placed in a 96-well plate for determination of drug concentration in plasma by UPLC/MS-MS.

Sequence of p38α (Q16539 whole entry): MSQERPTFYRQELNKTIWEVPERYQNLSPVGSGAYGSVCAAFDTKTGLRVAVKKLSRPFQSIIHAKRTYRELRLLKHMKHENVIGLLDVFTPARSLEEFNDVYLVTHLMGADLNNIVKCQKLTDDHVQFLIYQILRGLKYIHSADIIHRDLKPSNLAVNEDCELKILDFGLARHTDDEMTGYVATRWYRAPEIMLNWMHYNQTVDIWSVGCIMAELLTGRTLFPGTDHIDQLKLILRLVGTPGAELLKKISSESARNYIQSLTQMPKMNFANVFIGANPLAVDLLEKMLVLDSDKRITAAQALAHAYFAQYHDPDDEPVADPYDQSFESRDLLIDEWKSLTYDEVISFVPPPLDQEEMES
Sequence of p38β (Q15759 whole entry): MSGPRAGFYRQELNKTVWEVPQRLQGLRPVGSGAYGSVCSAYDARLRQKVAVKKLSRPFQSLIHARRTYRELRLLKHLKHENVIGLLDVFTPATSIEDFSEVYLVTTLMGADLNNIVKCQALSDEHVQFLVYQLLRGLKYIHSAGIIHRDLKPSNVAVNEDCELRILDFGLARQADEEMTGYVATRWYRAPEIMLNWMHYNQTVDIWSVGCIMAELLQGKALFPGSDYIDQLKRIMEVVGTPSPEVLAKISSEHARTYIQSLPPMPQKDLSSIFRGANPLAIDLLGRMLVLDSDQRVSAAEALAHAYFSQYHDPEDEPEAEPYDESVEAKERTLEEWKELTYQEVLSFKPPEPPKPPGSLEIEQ

| SMILES | IC50 [1] | IC50 [2] | IC50 [3] | Emax [4] | IC50 [4] | absorption compared with the positive compound VX-745 at the same dose [5] | Thalf (iv) [5] | Cmax [5] | MRT [5] | Tmax [5] | BA [5] | AUClast (po) [5] |
| --- | --- | --- | --- | --- | --- | --- | --- | --- | --- | --- | --- | --- |
| O=c1ncn2nc(Oc3ccc(Cl)cc3Br)ccc2c1-c1c(Cl)cccc1Cl [Compound I-15, 2-(2-bromo-4-chlorophenoxy)-5-(2,6-dichlorophenyl)-6H-pyrimido[1,6-b]pyridazin-6-one] | 41.3 nM | 263 nM | > 3330 nM | 46% | 132 nM |  |  |  |  |  |  |  |
| O=c1ncn2nc(Oc3ccc(F)c(Br)c3)ccc2c1-c1c(Cl)cccc1Cl [Compound I-5, 2-(3-bromo-4-fluorophenoxy)-5-(2,6-dichlorophenyl)-6H-pyrimido[1,6-b]pyridazin-6-one] | 49.3 nM | 389 nM | > 3330 nM | 44% | 94.3 nM |  |  |  |  |  |  |  |
| O=c1ncn2nc(Oc3c(F)ccc(F)c3Cl)ccc2c1-c1c(Cl)cccc1Cl [Compound I-29, 2-(2-chloro-3,6-difluorophenoxy)-5-(2,6-dichlorophenyl)-6H-pyrimido[1,6-b]pyridazin-6-one] | 34.1 nM | 406 nM | > 3330 nM | -50% | 678 nM |  |  |  |  |  |  |  |
| O=c1ncn2nc(Oc3cc(Cl)ccc3Cl)ccc2c1-c1c(Cl)cccc1Cl [Compound I-22, 2-(2,5-dichlorophenoxy)-5-(2,6-dichlorophenyl)-6H-pyrimido[1,6-b]pyridazin-6-one] | 31.3 nM | 150 nM | > 3330 nM | 53.6% | 18.3 nM |  |  |  |  |  |  |  |
| O=c1ncn2nc(Oc3ccc(Cl)cc3Cl)ccc2c1-c1c(Cl)cccc1Cl [Compound I-20, 2-(2,4-dichlorophenoxy)-5-(2,6-dichlorophenyl)-6H-pyrimido[1,6-b]pyridazin-6-one] | 17.6 nM | 96 nM | > 3330 nM | -60% | 23.3 nM |  |  |  |  |  |  |  |
| Cc1ccccc1-c1c(=O)ncn2nc(Oc3ccc(F)cc3F)ccc12 [Compound I-50, 2-(2,4-difluorophenoxy)-5-(o-methylphenyl)-6H-pyrimido[1,6-b]pyridazin-6-one] | 34.2 nM | 1090 nM | > 3330 nM |  |  | better | 1.93 h | 928 ng/mL | 3.05 h | 0.83 h | 84.9% | 3107 (h)*(ng/mL) |
| O=c1ncn2nc(Oc3ccccc3Br)ccc2c1-c1c(Cl)cccc1Cl [Compound I-17, 2-(2-bromophenoxy)-5-(2,6-dichlorophenyl)-6H-pyrimido[1,6-b]pyridazin-6-one] | 34.8 nM | 316 nM | > 3330 nM | -60% | 95.8 nM |  |  |  |  |  |  |  |
| O=c1ncn2nc(Oc3cccc(Cl)c3Cl)ccc2c1-c1c(Cl)cccc1Cl [Compound I-12, 2-(2,3-dichlorophenoxy)-5-(2,6-dichlorophenyl)-6H-pyrimido[1,6-b]pyridazin-6-one] | 32.8 nM | 302 nM | > 3330 nM | 49.5% | 176 nM |  |  |  |  |  |  |  |
| O=c1ncn2nc(Oc3ccc(F)cc3Cl)ccc2c1-c1c(Cl)cccc1Cl [Compound I-18, 2-(2-chloro-4-fluorophenoxy)-5-(2,6-dichlorophenyl)-6H-pyrimido[1,6-b]pyridazin-6-one] | 14.8 nM | 97.1 nM | > 3330 nM | 50.6% | 8.58 nM |  |  |  |  |  |  |  |
| O=c1ncn2nc(Oc3ccc(Br)cc3)ccc2c1-c1c(Cl)cccc1Cl [Compound I-39, 2-(4-bromophenoxy)-5-(2,6-dichlorophenyl)-6H-pyrimido[1,6-b]pyridazin-6-one] | 35.6 nM | 602 nM | > 3330 nM | 56.6% | 296 nM |  |  |  |  |  |  |  |
| O=c1ncn2nc(Oc3cc(Br)ccc3Cl)ccc2c1-c1c(Cl)cccc1Cl [Compound I-16, 2-(5-bromo-2-chlorophenoxy)-5-(2,6-dichlorophenyl)-6H-pyrimido[1,6-b]pyridazin-6-one] | 25.9 nM | 109 nM | > 3330 nM | 44.2% | 6.19 nM |  |  |  |  |  |  |  |
| O=c1ncn2nc(Oc3ccc(F)cc3F)ccc2c1-c1cc(Cl)ccc1Cl [Compound I-46, 5-(2,5-dichlorophenyl)-2-(2,4-difluorophenoxy)-6H-pyrimido[1,6-b]pyridazin-6-one] | 19.7 nM | 403 nM | > 3330 nM |  |  | better | 3.96 h | 891 ng/mL | 4.86 h | 2 h | 119.3% | 4016 (h)*(ng/mL) |
| CC(C)N1CCN(c2cc3c(-c4c(Cl)cccc4Cl)c(=O)ncn3nc2Oc2ccc(F)cc2F)CC1 [Compound I-60, 5-(2,6-dichlorophenyl)-2-(2,4-difluorophenoxy)-3-(4-isopropylpiperazin-1-yl)-6H-pyrimido[1,6-b]pyridazin-6-one] | 14.8 nM | 111 nM | > 3330 nM | 34.5% | 12.4 nM |  |  |  |  |  |  |  |
| O=c1ncn2nc(Oc3cc(F)ccc3F)ccc2c1-c1c(Cl)cccc1Cl [Compound I-21, 5-(2,6-dichlorophenyl)-2-(2,5-difluorophenoxy)-6H-pyrimido[1,6-b]pyridazin-6-one] | 27.7 nM | 226 nM | > 3330 nM | 51.3% | 19.2 nM |  |  |  |  |  |  |  |
| O=c1ncn2nc(Oc3ccc(Cl)cc3F)ccc2c1-c1c(Cl)cccc1Cl [Compound I-6, 2-(4-chloro-2-fluorophenoxy)-5-(2,6-dichlorophenyl)-6H-pyrimido[1,6-b]pyridazin-6-one] | 13.6 nM | 109 nM | > 3330 nM | 44.7% | 16.1 nM |  |  |  |  |  |  |  |
| O=c1ncn2nc(Oc3cccc(F)c3F)ccc2c1-c1c(Cl)cccc1Cl [Compound I-23, 5-(2,6-dichlorophenyl)-2-(2,3-difluorophenoxy)-6H-pyrimido[1,6-b]pyridazin-6-one] | 46.9 nM | 243 nM | > 3330 nM | -50% | 17.2 nM |  |  |  |  |  |  |  |
| O=c1ncn2nc(Oc3ccc(F)cc3F)ccc2c1-c1ccc(Cl)c(Cl)c1 [Compound I-58, 5-(3,4-dichlorophenyl)-2-(2,4-difluorophenoxy)-6H-pyrimido[1,6-b]pyridazin-6-one] | 137 nM | > 3330 nM | > 3330 nM |  |  |  |  |  |  |  |  |  |
